Experimental data from US20260315609A1, “MIXED VASOPRESSIN RECEPTOR AGONIST-ANTAGONIST FOR TREATING END-STAGE LIVER DISEASE AND COMPLICATIONS ASSOCIATED THEREOF” (FERRING B.V., priority 2022, published 2026).
Where “and” joins values, the source holds several entries; their conditions need not be identical. Equal values may be shown once. Starred links: 1 amine or outer side, 2 acyl side, 3 side chain; linkers in the order of their positions; H or OH if unused. Positions of bridges follow the written chain, without caps; N, C: chain ends. Non-standard residues stand in square brackets, D forms with d. Residues, ends and D or L forms follow the SMILES beside them. Chains are numbered I, II in the order given. *: point of attachment. isoGln = NC(=O)[C@H](CCC(=O)[*:2])N[*:1]; εLys = N[C@@H](CCCCN[*:1])C(=O)[*:2]; Dab = NCC[C@H](N)C(=O)O; PhAc = O=C(Cc1ccccc1)*

Tests used:
[1] = tested on: bile duct ligation (BDL) and ascites rat model; assay: Bile duct ligation (BDL) and ascites rats, SC b.i.d. 5 days; format: in vivo; conditions: for Animal Body Weight: 99.5 μg FB/kg SC b.i.d.
Procedure: Animals: Male Sprague Dawley rats weighing 300-400 grams with bile duct ligations (BDL) performed at 7 weeks of age by the vendor (Harlan, IN). BDL rats were administered 50 μg of vitamin K1 at the time of BDL surgery, prior to shipment, and then once weekly to reduce potential mortality from hemorrhagic complications.
The working solution was stored at 4° C. over the course of the study and warmed to room temperature for 30 minutes before administration.
Animals were weighed daily. […] Each metabolic cage was set up for continuous measurement of spontaneous urine output via force transducers placed […] the urine collection vials to monitor and record the time course of urine output. Data from the calibrated force transducers every time the rats void. […] Only 16 metabolic cages could be used, urine, water, and food intake data were not collected for one animal in the vehicle group. Animals were returned to their home cages for the remainder of the study and were sacrificed before the second treatment on the fifth day. Blood samples were collected from each animal via cardio puncture. Laparotomies were performed and ascites fluid collected and volume measured by pipet. Spleens were dissected from each animal, any excessive fat or connective tissue was removed and the spleens were weighted.

[2] = Preceding clinical study, Cmax; format: in vivo, human; conditions: 0.3 mg
Procedure: The originally planned escalating doses were 0.1, 0.3, 1, 3, 6, and 10 mg, respectively. […] The doses and/or infusion rates could be adjusted based on recommendations from the SRC.

[3] = Safety and tolerability / adverse events in healthy subjects; format: in vivo, human
From the text: The terms “adverse event” or “AE” as used herein, refer to an untoward medical occurrence in an individual, such as an individual participating in a clinical trial. In some instances, an AE is an unfavorable and/or unintended sign, symptom, or disease, such as being temporally associated with the use of an investigative medicinal product (IMP), whether or not considered to be caused by the IMP. For example, an AE can include accidental injuries, reasons for any change in medication (drug and/or dose), reasons for any medical, nursing or pharmacy consultation, or reasons for admission to hospital or surgical procedures, and overdoses and medication errors with or without clinical consequences. In some instances, AEs are anticipated based on the pharmacological effect of the IMP. In some instances, an AE is a laboratory abnormality, vital sign or finding from physical or gynecological examination assessed as clinically significant by the investigator. In some instances, a pre-treatment adverse event is any untoward medical occurrence arising or observed between signing of informed consent and the first administration of the IMP. In some instances, a treatment emergent adverse event is an AE occurring after the administration of the IMP and within the time of residual drug effect, or a pre-treatment adverse event or pre-existing medical condition that worsens in intensity after administration of the IMP and within the time of residual drug effect.
Injection site reactions were assessed by the Investigator in treatment Period 2 only, immediately after, 0.5, 4, and 24 hours after subcutaneous administration of the study drug on Days 1 to 5. The injection site reactions to be assessed were erythema, pain, pruritus, oedema, bruising, and pallor, each to be assessed as none, mild, moderate, or severe. Injection site reactions other than those described above or persisting longer than 24 hours were classified as adverse events (AEs).
Blood samples for hematology and hemostasis parameters were collected on Day −1, and at 2, and 4 hours after the administration on Day 1, pre-dose, and 3 hours after the administration on Days 2-4, pre-dose, and at 2, and 6 hours after the administration on Day 5 and at follow-up. The actual sampling times were recorded.
Urinalysis was performed locally by means of a dip-stick test. […] In case any result of the dipstick was abnormal and clinically significant, a new urine test was to be performed. If the abnormal result was confirmed, further examination could be initiated at the discretion of the Investigator. Clinically significant abnormal findings were reported as AEs. The metabolite pattern of Compound 1 in plasma and urine were measured.

[4] = i.v., Period 1, active treatment
[5] = s.c., Period 2, active treatment

CC[C@H](C)[C@@H]1NC(=O)[C@H](Cc2ccccc2)NC(=O)[C@@H](N)CSSC[C@@H](C(=O)N2CCC[C@H]2C(=O)N[C@@H](CCNC(=O)[C@@H](N)CCCCNC(=O)[C@H](CCCCNC(C)=O)NC(=O)CC[C@H](NC(=O)[C@H](CCCNC(=N)N)NC(=O)[C@@H]2CCCN2C(=O)[C@H](C)NC(=O)[C@H](CC(N)=O)NC(=O)[C@H](CCC(N)=O)NC(=O)[C@H](Cc2ccccc2)NC(=O)[C@@H](Cc2ccc(OC)cc2)NC(=O)Cc2ccccc2)C(N)=O)C(=O)NCC(N)=O)NC(=O)[C@H](CC(N)=O)NC(=O)[C@H](CCC(N)=O)NC1=O [Compound 1, Glycinamide, L-cysteinyl-L-phenylalanyl-L-isoleucyl-L-glutaminyl-L-asparaginyl-L-cysteinyl-L-prolyl-N4-(phenylacetyl-O-methyl-D-tyrosyl-L-phenylalanyl-L-glutaminyl-L-asparaginyl-L-alanyl-L-prolyl-L-arginyl-L-isoglutamyl-N5-acetyl-L-lysyl-L-ε-lysyl)-L-2,4-diaminobutyryl-, cyclic (1→6)-disulfide] (I: H-CFIQNCP[Dab]G-NH2 / II: PhAc-[dY](Me)FQNAPR[isoGln]K(Ac)[εLys]; disulfide I:1-I:6; amide I:8-II:C)
Animal Body Weight ([1]; day 1): 362.4 g | Animal Body Weight ([1]; day 2): 330.2 g | Animal Body Weight ([1]; day 3): 324.6 g | Animal Body Weight ([1]; day 4): 329.0 g | Animal Body Weight ([1]; day 5): 329.8 ± 2.9 g and 329.8 g | Urine Volume ([1]; 5-24 hr): 31.2 mL | Urine Volume, Δ versus vehicle ([1]; 5-24 hr): 46% | Urine creatinine content ([1]; 5-24 hr): 9.5 mg | Urine creatinine content, Δ versus vehicle ([1]; 5-24 hr): −32% | Urine potassium content ([1]; 5-24 hr): 0.8 mEq | Urine potassium content, Δ versus vehicle ([1]; 5-24 hr): −60% | Urine sodium content ([1]; 5-24 hr): 1.1 mEq | Urine sodium content, Δ versus vehicle ([1]; 5-24 hr): 85% | Urine Volume ([1]; 4 hr): 9.8 mL | Urine Volume, Δ versus vehicle ([1]; 4 hr): 367% | Urine creatinine content ([1]; 4 hr): 2.7 mg | Urine creatinine content, Δ versus vehicle ([1]; 4 hr): 8% | Urine potassium content ([1]; 4 hr): 1.1 mEq | Urine potassium content, Δ versus vehicle ([1]; 4 hr): 394% | Urine sodium content ([1]; 4 hr): 2.6 mEq | Urine sodium content, Δ versus vehicle ([1]; 4 hr): 2342% | Net Fluid Balance ([1]; 24 hours (vehicle 10.0)): -24.3 mL | Urine Volume ([1]; 24 hr): 41.0 ± 4.3 mL and 41.0 mL | decrease in mean body weight ([1]; between day 1 and 2): 32.2 g | further decrease in mean body weight ([1]; between days 2 and 3): 5.6 g | BUN ([1]; day 5): 34 mg/dL | BUN, Δ versus vehicle ([1]; day 5): 64% | Cl ([1]; day 5): 100 mEq/L | Cl, Δ versus vehicle ([1]; day 5): −3% | Creatinine (blood) ([1]; day 5): 0.3 mg/dL | Na (blood) ([1]; day 5): 139 mEq/L | Na (blood), Δ versus vehicle ([1]; day 5): −1% | PHOS ([1]; day 5): 5.1 mg/dL | PHOS, Δ versus vehicle ([1]; day 5): −21% | difference in final body weight versus vehicle ([1]; day 5): 39.8 g | Spleen Weight ([1]; day 5 (vehicle 2.7)): 2.3 g | Ascites Volume ([1]; day 5 (vehicle 19.8)): 3.8 ± 1.8 mL and 3.8 mL | hyponatremia ([1]; repeat administration over 5 days): failed to provide hyponatremia | Cmax ([2]; 6 hour i.v. infusion): up to 6 ng/mL | Cmax ([2]; s.c. injection): up to 2.5 ng/mL | severe AEs ([3]; i.v. 0.1 mg (bradycardia)): One | TEAEs regarded as ADRs ([3]; i.v., 34 subjects on active treatment): 87 | serious AEs ([3]; i.v., Period 1): No serious AEs occurred | number of TEAEs [3, 4]: 94 | subjects with TEAEs [3, 4]: 35 of the 48 | maximum tolerated s.c. dose (MTD) ([3]; s.c.): about 0.1 mg | severe AEs ([3]; s.c. 0.1 mg (abdominal pain)): 3 | subjects with moderate oedema and mild pain at injection site ([3]; s.c. 0.1 mg, 30 min): 1 subject | severe AEs ([3]; s.c. 0.3 mg (abdominal pain, back pain), 1 subject): 2 | serious AEs leading to discontinuation ([3]; s.c. 0.3 mg (elevated troponin I)): 1 | injection site reactions ([3]; s.c. (bolus) injection): Erythema, pallor, and pruritus of mild severity | TEAEs regarded as ADRs ([3]; s.c., 9 subjects on active treatment): 87 | AE leading to death ([3]; s.c., Period 2): No AE led to death | number of TEAEs [3, 5]: 87 | subjects with TEAEs [3, 5]: 9 subjects | tolerability ([3]; single i.v. infusion, about 0.9 mg or less): safe and well tolerated
